Measurements published in the supplement of paper PMC11451515.

Tested on: P12-Ichikawa
Assay: cell viability relative to DMSO control; higher = less cytotoxic
Settings: 48 h
Summary of the method: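 Viability is expressed as a percentage of DMSO wells within each plate, and cell-free wells serve as background. Seeding densities in the 1536-well plates (5 μl) were 500 cells/well for NOMO1 or SEM leukemia cells and 1000 cells/well for P12-Ichikawa. Each line was adapted for at least four passages in each medium. Library compounds in DMSO were pin-dosed at 47 μM to 0.79 nM (11 points, threefold), and CellTiter-Glo One luminescence was read after 48 h at 37°C.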

[1] = HPLM + 10% dialyzed FBS, 0.000781 µM
[2] = HPLM + 10% dialyzed FBS, 0.00234 µM
[3] = HPLM + 10% dialyzed FBS, 0.00702 µM
[4] = HPLM + 10% dialyzed FBS, 0.0211 µM
[5] = HPLM + 10% dialyzed FBS, 0.0632 µM
[6] = HPLM + 10% dialyzed FBS, 0.19 µM
[7] = HPLM + 10% dialyzed FBS, 0.569 µM
[8] = HPLM + 10% dialyzed FBS, 1.71 µM
[9] = HPLM + 10% dialyzed FBS, 5.12 µM
[10] = HPLM + 10% dialyzed FBS, 15.4 µM
[11] = HPLM + 10% dialyzed FBS, 46.1 µM
[12] = RPMI 5 mM glucose + 10% FBS, 0.000781 µM
[13] = RPMI 5 mM glucose + 10% FBS, 0.00234 µM
[14] = RPMI 5 mM glucose + 10% FBS, 0.00702 µM
[15] = RPMI 5 mM glucose + 10% FBS, 0.0211 µM
[16] = RPMI 5 mM glucose + 10% FBS, 0.0632 µM
[17] = RPMI 5 mM glucose + 10% FBS, 0.19 µM
[18] = RPMI 5 mM glucose + 10% FBS, 0.569 µM
[19] = RPMI 5 mM glucose + 10% FBS, 1.71 µM
[20] = RPMI 5 mM glucose + 10% FBS, 5.12 µM
[21] = RPMI 5 mM glucose + 10% FBS, 15.4 µM
[22] = RPMI 5 mM glucose + 10% FBS, 46.1 µM
[23] = RPMI 5 mM glucose + 10% dialyzed FBS, 0.000781 µM
[24] = RPMI 5 mM glucose + 10% dialyzed FBS, 0.00234 µM
[25] = RPMI 5 mM glucose + 10% dialyzed FBS, 0.00702 µM
[26] = RPMI 5 mM glucose + 10% dialyzed FBS, 0.0211 µM
[27] = RPMI 5 mM glucose + 10% dialyzed FBS, 0.0632 µM
[28] = RPMI 5 mM glucose + 10% dialyzed FBS, 0.19 µM
[29] = RPMI 5 mM glucose + 10% dialyzed FBS, 0.569 µM
[30] = RPMI 5 mM glucose + 10% dialyzed FBS, 1.71 µM
[31] = RPMI 5 mM glucose + 10% dialyzed FBS, 5.12 µM
[32] = RPMI 5 mM glucose + 10% dialyzed FBS, 15.4 µM
[33] = RPMI 5 mM glucose + 10% dialyzed FBS, 46.1 µM

Molecule `O=C(CCCCCCC(=O)Nc1cccnc1)NO` has a cell viability [1] of 93%, a cell viability [2] of 99.9% and a cell viability [3] of 96.9%. For the same molecule, the cell viability [4] was 96.9%, the cell viability [5] was 105% and the cell viability [6] was 109%. The cell viability [7] was 99.5%, the cell viability [8] was 90.8% and the cell viability [9] was 82.1%. It also gave a cell viability [10] of 12.2%, a cell viability [11] of 4.36% and a cell viability [12] of 82.5%. For the same molecule, the cell viability [13] was 95.6%, the cell viability [14] was 93.7% and the cell viability [15] was 93.4%. The cell viability [16] was 97.5%, the cell viability [17] was 95.4% and the cell viability [18] was 99.6%. For the same molecule, the cell viability [19] was 85.7%, the cell viability [20] was 76.1% and the cell viability [21] was 9.59%. For the same molecule, the cell viability [22] was 3.79%, the cell viability [23] was 86.9% and the cell viability [24] was 92.8%. The cell viability [25] was 90.7%, the cell viability [26] was 91.9% and the cell viability [27] was 94.7%. For the same molecule, the cell viability [28] was 95.1%, the cell viability [29] was 94.3% and the cell viability [30] was 85.2%. The cell viability [31] was 73.9%, the cell viability [32] was 10% and the cell viability [33] was 3.83%.

In the case of `O=[N+]([O-])c1ncc[nH]1`, the cell viability [1] was 93.7%, the cell viability [2] was 88% and the cell viability [3] was 88.2%. It also gave a cell viability [4] of 83.4%, a cell viability [5] of 97% and a cell viability [6] of 102%. The cell viability [7] was 88.4%, the cell viability [8] was 81% and the cell viability [9] was 84.5%. For the same molecule, the cell viability [10] was 75.4%, the cell viability [11] was 80.5% and the cell viability [12] was 88%. It also gave a cell viability [13] of 91%, a cell viability [14] of 84.6% and a cell viability [15] of 84.8%. The cell viability [16] was 91.6%, the cell viability [17] was 86.9% and the cell viability [18] was 78%. For the same molecule, the cell viability [19] was 74.1%, the cell viability [20] was 81% and the cell viability [21] was 70.5%. For the same molecule, the cell viability [22] was 78.8%, the cell viability [23] was 88.7% and the cell viability [24] was 86.1%. It also gave a cell viability [25] of 82.7%, a cell viability [26] of 98.4% and a cell viability [27] of 104%. The cell viability [28] was 99.9%, the cell viability [29] was 65.7% and the cell viability [30] was 78%. The cell viability [31] was 98%, the cell viability [32] was 71% and the cell viability [33] was 80.5%.

With `CCOC(=O)[C@@]1(CCCCCCOc2ccc(Cl)cc2)CO1` the cell viability [1] was 113%, the cell viability [2] was 108% and the cell viability [3] was 117%. It also gave a cell viability [4] of 114%, a cell viability [5] of 112% and a cell viability [6] of 113%. For the same molecule, the cell viability [7] was 111%, the cell viability [8] was 105% and the cell viability [9] was 105%. It also gave a cell viability [10] of 95.2%, a cell viability [11] of 7.68% and a cell viability [12] of 108%. For the same molecule, the cell viability [13] was 115%, the cell viability [14] was 114% and the cell viability [15] was 117%. The cell viability [16] was 118%, the cell viability [17] was 111% and the cell viability [18] was 107%. For the same molecule, the cell viability [19] was 110%, the cell viability [20] was 115% and the cell viability [21] was 104%. For the same molecule, the cell viability [22] was 12.1%, the cell viability [23] was 121% and the cell viability [24] was 123%. For the same molecule, the cell viability [25] was 125%, the cell viability [26] was 122% and the cell viability [27] was 114%. For the same molecule, the cell viability [28] was 111%, the cell viability [29] was 116% and the cell viability [30] was 107%. The cell viability [31] was 113%, the cell viability [32] was 107% and the cell viability [33] was 20.8%.

For `C[N]1C=C(C2=CC=CC=C12)\C3=C(\C(=O)NC3=O)C4=C[N](C5CCN(CC5)CC6=NC=CC=C6)C7=C4C=CC=C7`, the cell viability [1] was 110%, the cell viability [2] was 116% and the cell viability [3] was 115%. For the same molecule, the cell viability [4] was 119%, the cell viability [5] was 118% and the cell viability [6] was 123%. The cell viability [7] was 120%, the cell viability [8] was 118% and the cell viability [9] was 118%. It also gave a cell viability [10] of 120%, a cell viability [11] of 117% and a cell viability [12] of 118%. For the same molecule, the cell viability [13] was 126%, the cell viability [14] was 119% and the cell viability [15] was 115%. It also gave a cell viability [16] of 118%, a cell viability [17] of 123% and a cell viability [18] of 127%. It also gave a cell viability [19] of 124%, a cell viability [20] of 116% and a cell viability [21] of 116%. It also gave a cell viability [22] of 125%.

Molecule `C[C@H](CCC(=O)O)[C@H]1CCC2C3C[C@H](O)[C@@H]4C[C@H](O)CC[C@]4(C)C3CC[C@@]21C` (stereo not given in full) has a cell viability [1] of 106%, a cell viability [2] of 113% and a cell viability [3] of 101%. It also gave a cell viability [4] of 112%, a cell viability [5] of 126% and a cell viability [6] of 115%. The cell viability [7] was 97.3%, the cell viability [8] was 93.7% and the cell viability [9] was 107%. For the same molecule, the cell viability [10] was 96.8%, the cell viability [11] was 108% and the cell viability [12] was 105%. For the same molecule, the cell viability [13] was 126%, the cell viability [14] was 120% and the cell viability [15] was 114%. The cell viability [16] was 117%, the cell viability [17] was 108% and the cell viability [18] was 105%. For the same molecule, the cell viability [19] was 105%, the cell viability [20] was 102% and the cell viability [21] was 104%. For the same molecule, the cell viability [22] was 105%, the cell viability [23] was 98.7% and the cell viability [24] was 108%. For the same molecule, the cell viability [25] was 103%, the cell viability [26] was 103% and the cell viability [27] was 108%. For the same molecule, the cell viability [28] was 97.5%, the cell viability [29] was 96.9% and the cell viability [30] was 98.9%. The cell viability [31] was 105%, the cell viability [32] was 90.4% and the cell viability [33] was 94.9%.

In the case of `COc1ccc(C(CN(C)C)C2(O)CCCCC2)cc1` (stereo not given), the cell viability [1] was 111%, the cell viability [2] was 106% and the cell viability [3] was 108%. It also gave a cell viability [4] of 107%, a cell viability [5] of 115% and a cell viability [6] of 114%. It also gave a cell viability [7] of 95.3%, a cell viability [8] of 96.5% and a cell viability [9] of 106%. The cell viability [10] was 98.2%, the cell viability [11] was 108% and the cell viability [12] was 116%. The cell viability [13] was 115%, the cell viability [14] was 134% and the cell viability [15] was 151%. It also gave a cell viability [16] of 120%, a cell viability [17] of 91.1% and a cell viability [18] of 81.8%. It also gave a cell viability [19] of 97%, a cell viability [20] of 106% and a cell viability [21] of 85.7%. It also gave a cell viability [22] of 109%, a cell viability [23] of 98.4% and a cell viability [24] of 111%. It also gave a cell viability [25] of 109%, a cell viability [26] of 103% and a cell viability [27] of 120%. It also gave a cell viability [28] of 106%, a cell viability [29] of 105% and a cell viability [30] of 106%. The cell viability [31] was 101%, the cell viability [32] was 91.5% and the cell viability [33] was 97.1%.

`N\C1=N\C2=C(N=C[N]2COCCO)C(=O)N1` gave a cell viability [1] of 98.2%, a cell viability [2] of 109% and a cell viability [3] of 106%. It also gave a cell viability [4] of 107%, a cell viability [5] of 111% and a cell viability [6] of 112%. The cell viability [7] was 111%, the cell viability [8] was 112% and the cell viability [9] was 109%. The cell viability [10] was 105%, the cell viability [11] was 91.3% and the cell viability [12] was 93.7%. For the same molecule, the cell viability [13] was 112%, the cell viability [14] was 106% and the cell viability [15] was 115%. For the same molecule, the cell viability [16] was 110%, the cell viability [17] was 99.4% and the cell viability [18] was 110%. The cell viability [19] was 106%, the cell viability [20] was 106% and the cell viability [21] was 92.3%. For the same molecule, the cell viability [22] was 84.6%, the cell viability [23] was 97.2% and the cell viability [24] was 97.8%. It also gave a cell viability [25] of 111%, a cell viability [26] of 98.2% and a cell viability [27] of 105%. For the same molecule, the cell viability [28] was 97.3%, the cell viability [29] was 110% and the cell viability [30] was 94.7%. It also gave a cell viability [31] of 98.9%, a cell viability [32] of 102% and a cell viability [33] of 85.1%.
